In patent publication US11684607B2, “Secnidazole for use in the treatment of bacterial vaginosis” (priority 2014, dated 2023):
Like-named read-outs stand apart in the source and are kept apart here.

Assay: Effect of a single 2 g dose of SYM-1219 on the plasma pharmacokinetics of EE2 and NET in healthy female subjects
Format: in vivo, human
Settings: for AUC(0-t) / AUC(0-inf) / Cmax: female, human, plasma
Experimental: Methods: Fifty-four (54) healthy female subjects, ages 18-65, received EE2/NET alone and in combination, where SYM-1219+EE2/NET were co-administered on Day 1 (Group B1; N=27) or SYM-1219 on Day 1 and EE2/NET on Day 2 (Group B2; N=27). Serial blood samples were drawn to measure plasma concentrations of EE2/NET. […] Safety was evaluated by recording of adverse events, vital signs, ECGs and standard laboratory tests.

[1] = Group B1: Period 2 (EE2/NET followed by SYM-1219 2 grams on Day 1) vs Period 1 (EE2/NET alone)
[2] = Group B1: SYM-1219 2 g and EE2/NET co-administered on Day 1
[3] = Group B2: Period 2 (SYM-1219 2 grams on Day 1, EE2/NET on Day 2) vs Period 1 (EE2/NET alone)

- EE2 AUC0-t, Geometric LSMean % Ratio (100 * Test/Reference) [1]: 94.26%
- EE2 AUC0-∞, Geometric LSMean % Ratio (100 * Test/Reference) [1]: 105.37%
- EE2 Cmax, Geometric LSMean % Ratio (100 * Test/Reference) [1]: 71.07%
- EE2 Cmax reduction [2]: 29%
- change in EE2 AUC [2]: no change
- EE2 AUC0-t, Geometric LSMean % Ratio (100 * Test/Reference) [3]: 99.04%
- EE2 AUC0-∞, Geometric LSMean % Ratio (100 * Test/Reference) [3]: 93.32%
- EE2 Cmax, Geometric LSMean % Ratio (100 * Test/Reference) [3]: 104.96%
- EE2 PK alteration (Group B2: SYM-1219 2 g on Day 1, EE2/NET on Day 2): not altered
- AUC(0-t) (Group B1 Period 1: EE2/NET alone, read-out: EE2 AUC0-t, Geometric Least Squares (LS) Means): 0.627 ng·h/mL
- AUC(0-t) (Group B1 Period 1: EE2/NET alone, read-out: EE2 AUC0-t, Mean): 0.644 ng·h/mL
- AUC(0-inf) (Group B1 Period 1: EE2/NET alone, read-out: EE2 AUC0-∞, Geometric Least Squares (LS) Means): 0.878 ng·h/mL
- AUC(0-inf) (Group B1 Period 1: EE2/NET alone, read-out: EE2 AUC0-∞, Mean): 0.911 ng·h/mL
- Cmax (Group B1 Period 1: EE2/NET alone, read-out: EE2 Cmax, Geometric Least Squares (LS) Means): 0.0779 ng/mL
- Cmax (Group B1 Period 1: EE2/NET alone, read-out: EE2 Cmax, Mean): 0.0806 ng/mL
- AUC(0-t) (Group B1 Period 2: EE2/NET followed by SYM-1219 2 grams on Day 1, read-out: EE2 AUC0-t, Geometric Least Squares (LS) Means): 0.591 ng·h/mL
- AUC(0-t) (Group B1 Period 2: EE2/NET followed by SYM-1219 2 grams on Day 1, read-out: EE2 AUC0-t, Mean): 0.616 ng·h/mL
- AUC(0-inf) (Group B1 Period 2: EE2/NET followed by SYM-1219 2 grams on Day 1, read-out: EE2 AUC0-∞, Geometric Least Squares (LS) Means): 0.925 ng·h/mL
- AUC(0-inf) (Group B1 Period 2: EE2/NET followed by SYM-1219 2 grams on Day 1, read-out: EE2 AUC0-∞, Mean): 0.954 ng·h/mL
- Cmax (Group B1 Period 2: EE2/NET followed by SYM-1219 2 grams on Day 1, read-out: EE2 Cmax, Geometric Least Squares (LS) Means): 0.0554 ng/mL
- Cmax (Group B1 Period 2: EE2/NET followed by SYM-1219 2 grams on Day 1, read-out: EE2 Cmax, Mean): 0.0599 ng/mL
- AUC(0-t) (Group B2 Period 1: EE2/NET alone, read-out: EE2 AUC0-t, Geometric Least Squares (LS) Means): 0.65 ng·h/mL
- AUC(0-t) (Group B2 Period 1: EE2/NET alone, read-out: EE2 AUC0-t, Mean): 0.68 ng·h/mL
- AUC(0-inf) (Group B2 Period 1: EE2/NET alone, read-out: EE2 AUC0-∞, Geometric Least Squares (LS) Means): 0.945 ng·h/mL
- AUC(0-inf) (Group B2 Period 1: EE2/NET alone, read-out: EE2 AUC0-∞, Mean): 0.995 ng·h/mL
- Cmax (Group B2 Period 1: EE2/NET alone, read-out: EE2 Cmax, Geometric Least Squares (LS) Means): 0.083 ng/mL
- Cmax (Group B2 Period 1: EE2/NET alone, read-out: EE2 Cmax, Mean): 0.0891 ng/mL
- AUC(0-t) (Group B2 Period 2: SYM-1219 2 grams on Day 1, EE2/NET on Day 2, read-out: EE2 AUC0-t, Geometric Least Squares (LS) Means): 0.644 ng·h/mL
- AUC(0-t) (Group B2 Period 2: SYM-1219 2 grams on Day 1, EE2/NET on Day 2, read-out: EE2 AUC0-t, Mean): 0.669 ng·h/mL
- AUC(0-inf) (Group B2 Period 2: SYM-1219 2 grams on Day 1, EE2/NET on Day 2, read-out: EE2 AUC0-∞, Geometric Least Squares (LS) Means): 0.882 ng·h/mL
- AUC(0-inf) (Group B2 Period 2: SYM-1219 2 grams on Day 1, EE2/NET on Day 2, read-out: EE2 AUC0-∞, Mean): 0.937 ng·h/mL
- Cmax (Group B2 Period 2: SYM-1219 2 grams on Day 1, EE2/NET on Day 2, read-out: EE2 Cmax, Geometric Least Squares (LS) Means): 0.0872 ng/mL
- Cmax (Group B2 Period 2: SYM-1219 2 grams on Day 1, EE2/NET on Day 2, read-out: EE2 Cmax, Mean): 0.0926 ng/mL
SMILES: C#C[C@]1(O)CC[C@H]2[C@@H]3CCc4cc(O)ccc4[C@H]3CC[C@@]21C [EE2, ethinyl estradiol]
